Source: patent publication US12655116B2, “Substituted isophthalic acid diamides” (Bayer Aktiengesellschaft, priority 2020, dated 2026)

Columns and labels:
ALOMY [1] = assay: Post-emergence herbicidal action against ALOMY; format: in vivo, Alopecurus myosuroides; settings: Alopecurus myosuroides, 504 h, visual assessment about 3 weeks after treatment vs untreated controls
In short: (§1)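 A WP or EC formulation diluted in water with 0.2% wetting agent was sprayed at 600 to 800 l/ha onto one-leaf-stage plants grown in sandy loam. About 3 weeks later, action was rated visually in percent, 100% being dead plants.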

VIOTR [2] = assay: Pre-emergence herbicidal action against VIOTR; format: in vivo, Viola tricolor; settings: Viola tricolor, 504 h; for pest or weed control at 80 g/ha: dosage 80 g/ha
In short: (§2)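 Greenhouse pots of sandy loam held seeds covered with soil, onto which the compound was applied before emergence. An aqueous suspension or emulsion of WP or EC was used at 600 to 800 l/ha with 0.2% wetting agent. Percent damage was judged visually at 3 weeks.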

LOLRI [3] = assay: Post-emergence herbicidal action against LOLRI; format: in vivo, Lolium rigidum; settings: Lolium rigidum, 504 h
In short: as §1

LOLRI [4] = assay: Pre-emergence herbicidal action against LOLRI; format: in vivo, Lolium rigidum; settings: Lolium rigidum, 504 h
In short: as §2

AVEFA = assay: Pre-emergence herbicidal action against AVEFA; format: in vivo, Avena fatua; settings: Avena fatua, 504 h, pre-emergence
In short: as §2

ECHCG [5] = assay: Post-emergence herbicidal action against ECHCG; format: in vivo, Echinochloa crus-galli; settings: Echinochloa crus-galli, 504 h; for pest or weed control at 20 g/ha: dosage 20 g/ha
In short: as §1

STEME = assay: Pre-emergence herbicidal action against STEME; format: in vivo, Stellaria media; settings: Stellaria media, 504 h; for pest or weed control at 80 g/ha: dosage 80 g/ha
In short: as §2

SETVI [6] = assay: Post-emergence herbicidal action against SETVI; format: in vivo, Setaria viridis; settings: Setaria viridis, 504 h; for pest or weed control at 20 g/ha: dosage 20 g/ha
In short: as §1

POLCO = assay: Pre-emergence herbicidal action against POLCO; format: in vivo, Polygonum convolvulus; settings: Fallopia convolvulus, 504 h
In short: as §2

ABUTH [7] = assay: Pre-emergence herbicidal action against ABUTH; format: in vivo, Abutilon theophrasti; settings: Abutilon theophrasti, 504 h; for pest or weed control at 80 g/ha: scored visually after 3 weeks vs untreated controls (100% = plants have died, 0% = like control plants); for pest or weed control at 20 g/ha: dosage 20 g/ha, scored visually after 3 weeks vs untreated controls, read-out: Pre-emergence action against ABUTH (herbicidal activity in percent)
In short: as §2

AMARE [8] = assay: Post-emergence herbicidal action against AMARE; format: in vivo, Amaranthus retroflexus; settings: Amaranthus retroflexus, 504 h, visual assessment about 3 weeks after treatment, 100% = plants have died, 0% = like control plants
In short: as §1

ABUTH [9] = assay: Post-emergence herbicidal action against ABUTH; format: in vivo, Abutilon theophrasti; settings: Abutilon theophrasti, 504 h, visual assessment about 3 weeks after treatment vs untreated controls; for pest or weed control at 5 g/ha: dosage 5 g/ha; for pest or weed control at 20 g/ha: dosage 20 g/ha
In short: as §1

VIOTR [10] = assay: Post-emergence herbicidal action against VIOTR; format: in vivo, Viola tricolor; settings: Viola tricolor, 504 h
In short: as §1

VERPE [11] = assay: Pre-emergence herbicidal action against VERPE; format: in vivo, Veronica persica; settings: Veronica persica, 504 h; for pest or weed control at 80 g/ha: dosage 80 g/ha
In short: as §2

ALOMY [12] = assay: Pre-emergence herbicidal action against ALOMY; format: in vivo, Alopecurus myosuroides; settings: Alopecurus myosuroides, 504 h, pre-emergence
In short: as §2

HORMU [13] = assay: Pre-emergence herbicidal action against HORMU; format: in vivo, Hordeum murinum; settings: Hordeum murinum, 504 h, pre-emergence
In short: as §2

HORMU [14] = assay: Post-emergence herbicidal action against HORMU; format: in vivo, Hordeum murinum; settings: Hordeum murinum, 504 h; for pest or weed control at 20 g/ha: dosage 20 g/ha
In short: as §1

SETVI [15] = assay: Pre-emergence herbicidal action against SETVI; format: in vivo, Setaria viridis; settings: Setaria viridis, 504 h; for pest or weed control at 80 g/ha: dosage 80 g/ha
In short: as §2

VERPE [16] = assay: Post-emergence herbicidal action against VERPE; format: in vivo, Veronica persica; settings: Veronica persica, 504 h
In short: as §1

AMARE [17] = assay: Pre-emergence herbicidal action against AMARE; format: in vivo, Amaranthus retroflexus; settings: Amaranthus retroflexus, 504 h, 100% = plants have died, 0% = like control plants; for pest or weed control at 20 g/ha / pest or weed control at 80 g/ha: scored visually after 3 weeks vs untreated controls
In short: as §2

ECHCG [18] = assay: Pre-emergence herbicidal action against ECHCG; format: in vivo, Echinochloa crus-galli; settings: Echinochloa crus-galli, 504 h
In short: as §2

[19] = 100% = plants have died, 0% = like control plants
[20] = 320 g/ha, scored visually after 3 weeks, 100% = plants have died, 0% = like control plants

CCn1nnnc1NC(=O)c1ccc(C(F)(F)F)c(C(=O)NC2CC2)c1C [Example 2-27]
pest or weed control at 5 g/ha (ALOMY [1]; dosage 5 g/ha): 80%
pest or weed control at 20 g/ha (ALOMY [1]; dosage 20 g/ha): 90%
pest or weed control at 20 g/ha (VIOTR [2]; dosage 20 g/ha): 100%
pest or weed control at 80 g/ha (VIOTR [2]): 100%
pest or weed control at 20 g/ha (LOLRI [3]; dosage 20 g/ha): 80%
pest or weed control at 80 g/ha (LOLRI [4]; 80 g/ha): 80%
pest or weed control at 80 g/ha (AVEFA): 100%
pest or weed control at 20 g/ha (AVEFA; 20 g/ha, scored visually after 3 weeks, 100% = plants have died, 0% = like control plants): 80%
pest or weed control at 5 g/ha (ECHCG [5]; dosage 5 g/ha): 80%
pest or weed control at 20 g/ha (ECHCG [5]): 100%
pest or weed control at 20 g/ha (STEME; dosage 20 g/ha): 100%
pest or weed control at 80 g/ha (STEME): 100%
pest or weed control at 5 g/ha (SETVI [6]; dosage 5 g/ha): 80%
pest or weed control at 20 g/ha (SETVI [6]): 100%
pest or weed control at 20 g/ha (POLCO; dosage 20 g/ha): 80%
pest or weed control at 80 g/ha (POLCO; dosage 80 g/ha): 100%
pest or weed control at 80 g/ha (ABUTH [7]): 100%
pest or weed control at 20 g/ha (ABUTH [7]; [19]): 100%
pest or weed control at 20 g/ha (AMARE [8]): 100%
pest or weed control at 5 g/ha (ABUTH [9]): 100%
pest or weed control at 20 g/ha (ABUTH [9]): 100%
pest or weed control at 5 g/ha (VIOTR [10]; 5 g/ha): 100%
pest or weed control at 20 g/ha (VIOTR [10]; 20 g/ha): 100%
pest or weed control at 20 g/ha (VERPE [11]; dosage 20 g/ha): 80%
pest or weed control at 80 g/ha (VERPE [11]): 100%
pest or weed control at 80 g/ha (ALOMY [12]; 80 g/ha, scored visually after 3 weeks vs untreated controls (100% = plants have died, 0% = like control plants)): 100%
pest or weed control at 80 g/ha (HORMU [13]; 80 g/ha): 90%
pest or weed control at 20 g/ha (HORMU [14]): 90%
pest or weed control at 80 g/ha (SETVI [15]): 100%
pest or weed control at 20 g/ha (VERPE [16]; 20 g/ha): 80%
pest or weed control at 20 g/ha (AMARE [17]): 100%
pest or weed control at 80 g/ha (AMARE [17]): 100%
pest or weed control at 20 g/ha (ECHCG [18]; 20 g/ha): 90%
pest or weed control at 80 g/ha (ECHCG [18]): 100%

Cn1nnnc1NC(=O)c1ccc(C(F)(F)F)c(C(N)=O)c1Cl [Example 1-338]
pest or weed control at 80 g/ha (ALOMY [1]; dosage 80 g/ha): 100%
pest or weed control at 80 g/ha (VIOTR [2]): 80%
pest or weed control at 320 g/ha (VIOTR [2]; dosage 320 g/ha): 100%
pest or weed control at 80 g/ha (LOLRI [3]; dosage 80 g/ha): 80%
pest or weed control at 320 g/ha (LOLRI [4]; 320 g/ha): 90%
pest or weed control at 80 g/ha (AVEFA): 90%
pest or weed control at 320 g/ha (AVEFA; [20]): 100%
pest or weed control at 20 g/ha (ECHCG [5]): 90%
pest or weed control at 80 g/ha (ECHCG [5]; dosage 80 g/ha): 90%
pest or weed control at 80 g/ha (STEME): 90%
pest or weed control at 320 g/ha (STEME; dosage 320 g/ha): 90%
pest or weed control at 20 g/ha (SETVI [6]): 80%
pest or weed control at 80 g/ha (SETVI [6]; dosage 80 g/ha): 100%
pest or weed control at 320 g/ha (POLCO; dosage 320 g/ha): 80%
pest or weed control at 80 g/ha (ABUTH [7]): 100%
pest or weed control at 320 g/ha (ABUTH [7]; Dosage: 320 g/ha, scored visually after 3 weeks, 100% = plants have died, 0% = like control plants): 100%
pest or weed control at 20 g/ha (ABUTH [7]; [19]): 80%
pest or weed control at 20 g/ha (AMARE [8]): 90%
pest or weed control at 80 g/ha (AMARE [8]; 80 g/ha): 100%
pest or weed control at 5 g/ha (ABUTH [9]): 90%
pest or weed control at 20 g/ha (ABUTH [9]): 90%
pest or weed control at 80 g/ha (ABUTH [9]; dosage 80 g/ha): 100%
pest or weed control at 80 g/ha (VIOTR [10]; 80 g/ha): 90%
pest or weed control at 80 g/ha (VERPE [11]): 90%
pest or weed control at 320 g/ha (VERPE [11]; dosage 320 g/ha): 100%
pest or weed control at 320 g/ha (ALOMY [12]; [20]): 100%
pest or weed control at 320 g/ha (HORMU [13]; 320 g/ha): 100%
pest or weed control at 20 g/ha (HORMU [14]): 80%
pest or weed control at 80 g/ha (HORMU [14]; dosage 80 g/ha): 90%
pest or weed control at 80 g/ha (SETVI [15]): 90%
pest or weed control at 320 g/ha (SETVI [15]; dosage 320 g/ha): 100%
pest or weed control at 80 g/ha (VERPE [16]; 80 g/ha): 100%
pest or weed control at 20 g/ha (AMARE [17]): 100%
pest or weed control at 80 g/ha (AMARE [17]): 100%
pest or weed control at 320 g/ha (AMARE [17]; 320 g/ha, scored visually after 3 weeks): 100%
pest or weed control at 80 g/ha (ECHCG [18]): 90%
pest or weed control at 320 g/ha (ECHCG [18]; 320 g/ha): 100%
